How the values were obtained:
Settings in all cases: 10µM
[1] = target: CDK12/Cyclin K (Homo sapiens, UniProt Q9NYV4); assay: NanoBRET live-cell target engagement, CDK12-NanoLuc/Cyclin K in HEK-293; format: binding
[2] = target: CDK20/Cyclin H (Homo sapiens, UniProt Q8IZL9); assay: NanoBRET live-cell target engagement, NanoLuc-CDK20/Cyclin H in HEK-293; format: binding
[3] = target: CDK6/Cyclin D1 (Homo sapiens, UniProt Q00534); assay: NanoBRET live-cell target engagement, NanoLuc-CDK6/Cyclin D1 in HEK-293; format: binding
Sequence of CDK6/Cyclin D1 (Q00534 whole entry): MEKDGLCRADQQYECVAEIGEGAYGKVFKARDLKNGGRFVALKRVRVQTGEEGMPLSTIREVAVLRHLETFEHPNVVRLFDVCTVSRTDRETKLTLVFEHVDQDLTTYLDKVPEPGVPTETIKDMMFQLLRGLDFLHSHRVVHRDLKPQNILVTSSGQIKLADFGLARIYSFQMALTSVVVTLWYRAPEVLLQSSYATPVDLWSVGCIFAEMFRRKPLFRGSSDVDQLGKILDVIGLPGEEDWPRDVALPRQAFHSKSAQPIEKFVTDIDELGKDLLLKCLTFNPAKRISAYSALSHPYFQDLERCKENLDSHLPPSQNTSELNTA
Sequence of CDK6/Cyclin D1 (P24385 whole entry partner): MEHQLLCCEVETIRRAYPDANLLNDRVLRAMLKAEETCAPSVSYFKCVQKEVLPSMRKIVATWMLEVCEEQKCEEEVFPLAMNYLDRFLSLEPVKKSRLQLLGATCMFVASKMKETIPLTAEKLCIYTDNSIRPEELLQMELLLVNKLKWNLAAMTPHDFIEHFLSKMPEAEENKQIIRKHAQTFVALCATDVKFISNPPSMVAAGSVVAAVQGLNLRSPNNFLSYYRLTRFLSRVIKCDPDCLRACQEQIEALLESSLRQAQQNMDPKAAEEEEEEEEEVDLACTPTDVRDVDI

[4] = target: CDK19/Cyclin C (Homo sapiens, UniProt Q9BWU1); assay: NanoBRET live-cell target engagement, NanoLuc-CDK19/Cyclin C in HEK-293
Sequence of CDK19/Cyclin C (Q9BWU1 whole entry): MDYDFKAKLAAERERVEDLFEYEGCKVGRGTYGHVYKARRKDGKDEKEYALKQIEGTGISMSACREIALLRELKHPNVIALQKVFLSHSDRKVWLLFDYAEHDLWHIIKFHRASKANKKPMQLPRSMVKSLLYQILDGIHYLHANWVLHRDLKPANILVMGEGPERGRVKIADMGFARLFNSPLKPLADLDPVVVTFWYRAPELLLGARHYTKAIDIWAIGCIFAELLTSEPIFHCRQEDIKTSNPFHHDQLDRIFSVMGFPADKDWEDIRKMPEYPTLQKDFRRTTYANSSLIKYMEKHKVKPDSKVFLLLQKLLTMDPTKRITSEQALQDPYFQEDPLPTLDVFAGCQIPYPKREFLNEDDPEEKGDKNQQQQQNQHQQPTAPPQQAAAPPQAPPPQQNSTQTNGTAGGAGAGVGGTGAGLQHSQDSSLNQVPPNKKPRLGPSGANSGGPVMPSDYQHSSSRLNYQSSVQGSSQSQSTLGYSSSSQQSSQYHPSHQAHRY
Sequence of CDK19/Cyclin C (P24863 whole entry partner): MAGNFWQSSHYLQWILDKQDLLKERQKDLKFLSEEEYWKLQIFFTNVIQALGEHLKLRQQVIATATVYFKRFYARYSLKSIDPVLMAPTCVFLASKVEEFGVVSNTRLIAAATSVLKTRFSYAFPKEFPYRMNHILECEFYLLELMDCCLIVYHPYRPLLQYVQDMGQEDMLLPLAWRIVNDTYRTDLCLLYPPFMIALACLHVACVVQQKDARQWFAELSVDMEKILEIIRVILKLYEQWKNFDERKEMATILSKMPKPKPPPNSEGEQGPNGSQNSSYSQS

[5] = target: CDK9/Cyclin K (Homo sapiens, UniProt P50750); assay: NanoBRET live-cell target engagement, NanoLuc-CDK9/Cyclin K in HEK-293; format: binding
[6] = target: CDK4/Cyclin D1 (Homo sapiens, UniProt P11802); assay: NanoBRET live-cell target engagement, NanoLuc-CDK4/Cyclin D1 in HEK-293; format: binding
Sequence of CDK4/Cyclin D1 (P11802 whole entry): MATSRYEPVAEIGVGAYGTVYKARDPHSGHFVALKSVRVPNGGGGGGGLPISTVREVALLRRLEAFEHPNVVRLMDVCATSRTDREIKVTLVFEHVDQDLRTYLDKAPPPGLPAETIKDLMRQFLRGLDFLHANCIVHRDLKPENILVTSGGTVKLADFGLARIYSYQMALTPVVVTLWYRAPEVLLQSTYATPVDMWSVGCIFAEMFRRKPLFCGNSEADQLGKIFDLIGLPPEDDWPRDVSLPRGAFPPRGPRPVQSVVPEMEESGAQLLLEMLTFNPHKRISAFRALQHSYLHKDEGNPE
Sequence of CDK4/Cyclin D1 (P24385 whole entry partner): as the sequence (P24385 whole entry partner) above

[7] = target: CDK7 (Homo sapiens, UniProt P50613); assay: NanoBRET live-cell target engagement, NanoLuc-CDK7 in HEK-293; format: binding
[8] = target: CDK14/Cyclin Y (Homo sapiens, UniProt O94921); assay: NanoBRET live-cell target engagement, CDK14-NanoLuc/Cyclin Y in HEK-293; format: binding
Sequence of CDK14/Cyclin Y (O94921 whole entry): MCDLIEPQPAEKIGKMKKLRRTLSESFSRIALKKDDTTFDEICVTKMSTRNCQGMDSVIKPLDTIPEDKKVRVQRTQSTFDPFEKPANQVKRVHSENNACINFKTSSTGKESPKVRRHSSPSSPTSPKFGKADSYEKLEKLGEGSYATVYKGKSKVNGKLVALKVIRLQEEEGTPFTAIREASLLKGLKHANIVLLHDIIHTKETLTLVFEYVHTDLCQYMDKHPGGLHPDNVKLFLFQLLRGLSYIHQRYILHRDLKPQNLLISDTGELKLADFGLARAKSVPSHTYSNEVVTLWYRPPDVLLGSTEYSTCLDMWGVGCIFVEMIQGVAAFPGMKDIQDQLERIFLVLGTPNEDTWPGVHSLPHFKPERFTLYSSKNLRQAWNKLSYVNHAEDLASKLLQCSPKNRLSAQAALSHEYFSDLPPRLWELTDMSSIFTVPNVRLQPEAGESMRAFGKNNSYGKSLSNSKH
Sequence of CDK14/Cyclin Y (Q8ND76 whole entry partner): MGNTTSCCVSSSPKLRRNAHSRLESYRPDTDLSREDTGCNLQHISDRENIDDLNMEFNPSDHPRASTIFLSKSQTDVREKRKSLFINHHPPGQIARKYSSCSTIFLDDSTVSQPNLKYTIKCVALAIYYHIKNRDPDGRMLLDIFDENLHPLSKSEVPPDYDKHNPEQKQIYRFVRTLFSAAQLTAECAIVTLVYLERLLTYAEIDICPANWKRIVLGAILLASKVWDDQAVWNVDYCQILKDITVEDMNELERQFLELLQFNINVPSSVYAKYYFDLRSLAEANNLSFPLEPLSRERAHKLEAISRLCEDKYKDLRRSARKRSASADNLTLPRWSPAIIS

[9] = target: CDK13/Cyclin K (Homo sapiens, UniProt Q14004); assay: NanoBRET live-cell target engagement, CDK13-NanoLuc/Cyclin K in HEK-293; format: binding
[10] = target: CDK16/Cyclin Y (Homo sapiens, UniProt Q00536); assay: NanoBRET live-cell target engagement, CDK16-NanoLuc/Cyclin Y in HEK-293; format: binding
[11] = target: CDK15/Cyclin Y (Homo sapiens, UniProt Q96Q40); assay: NanoBRET live-cell target engagement, NanoLuc-CDK15/Cyclin Y in HEK-293; format: binding
[12] = target: CDK18/Cyclin Y (Homo sapiens, UniProt Q07002); assay: NanoBRET live-cell target engagement, CDK18-NanoLuc/Cyclin Y in HEK-293; format: binding
[13] = target: CDK5/CDK5R1 (Homo sapiens, UniProt Q00535); assay: NanoBRET live-cell target engagement, CDK5-NanoLuc/CDK5R1 in HEK-293; format: binding
Sequence of CDK5/CDK5R1 (Q00535 whole entry): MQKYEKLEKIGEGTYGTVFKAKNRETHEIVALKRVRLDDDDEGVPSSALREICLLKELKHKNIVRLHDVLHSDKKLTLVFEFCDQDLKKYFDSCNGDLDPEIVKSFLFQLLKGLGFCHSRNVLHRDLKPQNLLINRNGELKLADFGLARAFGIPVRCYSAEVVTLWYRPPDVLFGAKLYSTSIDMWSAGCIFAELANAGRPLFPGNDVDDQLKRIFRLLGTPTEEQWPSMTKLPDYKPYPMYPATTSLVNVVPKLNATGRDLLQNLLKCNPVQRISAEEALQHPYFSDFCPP
Sequence of CDK5/CDK5R1 (Q15078 whole entry partner): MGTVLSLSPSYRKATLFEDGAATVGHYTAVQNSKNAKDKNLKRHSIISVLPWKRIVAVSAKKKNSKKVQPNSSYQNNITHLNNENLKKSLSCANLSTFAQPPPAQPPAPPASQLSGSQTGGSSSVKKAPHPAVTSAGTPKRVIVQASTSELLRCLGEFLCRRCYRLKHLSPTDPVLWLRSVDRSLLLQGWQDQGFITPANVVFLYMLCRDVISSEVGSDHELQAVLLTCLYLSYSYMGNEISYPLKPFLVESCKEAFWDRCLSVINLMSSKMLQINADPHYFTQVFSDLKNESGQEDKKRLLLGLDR

[14] = target: CDK11B/Cyclin L2 (Homo sapiens, UniProt P21127); assay: NanoBRET live-cell target engagement, CDK11B-NanoLuc/Cyclin L2 in HEK-293; format: binding
Sequence of CDK11B/Cyclin L2 (P21127 1-782 isoform P21127-2): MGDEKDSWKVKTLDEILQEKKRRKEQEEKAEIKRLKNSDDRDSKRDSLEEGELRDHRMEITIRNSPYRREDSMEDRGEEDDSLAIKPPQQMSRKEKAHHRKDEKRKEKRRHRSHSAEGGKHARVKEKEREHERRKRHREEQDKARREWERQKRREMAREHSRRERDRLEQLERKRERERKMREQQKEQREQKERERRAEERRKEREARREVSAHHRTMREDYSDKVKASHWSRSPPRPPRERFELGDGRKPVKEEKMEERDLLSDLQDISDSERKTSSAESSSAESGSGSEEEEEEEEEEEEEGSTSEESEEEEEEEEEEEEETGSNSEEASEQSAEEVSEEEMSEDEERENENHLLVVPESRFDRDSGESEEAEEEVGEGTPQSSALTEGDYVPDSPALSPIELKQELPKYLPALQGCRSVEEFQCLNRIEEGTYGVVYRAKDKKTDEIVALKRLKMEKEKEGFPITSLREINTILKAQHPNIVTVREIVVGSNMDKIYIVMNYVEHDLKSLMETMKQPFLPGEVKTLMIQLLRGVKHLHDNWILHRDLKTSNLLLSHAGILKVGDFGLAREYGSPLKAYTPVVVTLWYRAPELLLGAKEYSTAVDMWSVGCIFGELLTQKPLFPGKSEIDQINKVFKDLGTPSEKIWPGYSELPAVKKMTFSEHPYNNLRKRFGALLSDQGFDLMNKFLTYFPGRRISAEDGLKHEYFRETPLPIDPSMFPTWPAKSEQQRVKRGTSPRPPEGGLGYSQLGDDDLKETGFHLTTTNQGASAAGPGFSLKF

[15] = target: CDK1/Cyclin E1 (Homo sapiens, UniProt P06493); assay: NanoBRET live-cell target engagement, CDK1-NanoLuc/Cyclin E1 in HEK-293; format: binding
[16] = target: CDK8/Cyclin C (Homo sapiens, UniProt P49336); assay: NanoBRET live-cell target engagement, NanoLuc-CDK8/Cyclin C in HEK-293; format: binding
[17] = target: CDK17/Cyclin Y (Homo sapiens, UniProt Q00537); assay: NanoBRET live-cell target engagement, CDK17-NanoLuc/Cyclin Y in HEK-293; format: binding
Sequence of CDK17/Cyclin Y (Q00537 whole entry): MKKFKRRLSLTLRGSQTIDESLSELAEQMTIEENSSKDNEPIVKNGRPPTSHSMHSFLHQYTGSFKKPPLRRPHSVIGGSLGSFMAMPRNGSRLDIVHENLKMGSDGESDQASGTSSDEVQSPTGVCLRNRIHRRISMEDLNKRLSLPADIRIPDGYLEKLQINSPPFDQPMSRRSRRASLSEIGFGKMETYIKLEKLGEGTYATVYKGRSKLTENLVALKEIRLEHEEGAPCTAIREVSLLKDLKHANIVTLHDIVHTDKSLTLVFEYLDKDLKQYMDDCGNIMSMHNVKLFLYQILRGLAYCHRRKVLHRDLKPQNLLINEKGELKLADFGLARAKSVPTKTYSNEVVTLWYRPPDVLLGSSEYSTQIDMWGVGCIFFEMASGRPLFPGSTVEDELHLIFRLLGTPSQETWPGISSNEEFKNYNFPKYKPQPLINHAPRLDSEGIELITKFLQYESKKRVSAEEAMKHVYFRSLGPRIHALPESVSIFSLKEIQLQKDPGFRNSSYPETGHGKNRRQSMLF
Sequence of CDK17/Cyclin Y (Q8ND76 whole entry partner): as the sequence (Q8ND76 whole entry partner) above

[18] = target: T1, CDK11A/Cyclin L2 (Homo sapiens, UniProt Q9UQ88); assay: NanoBRET live-cell target engagement, CDK11A-NanoLuc/Cyclin L2 in HEK-293; format: binding
T1 sequence (Q9UQ88 1-783): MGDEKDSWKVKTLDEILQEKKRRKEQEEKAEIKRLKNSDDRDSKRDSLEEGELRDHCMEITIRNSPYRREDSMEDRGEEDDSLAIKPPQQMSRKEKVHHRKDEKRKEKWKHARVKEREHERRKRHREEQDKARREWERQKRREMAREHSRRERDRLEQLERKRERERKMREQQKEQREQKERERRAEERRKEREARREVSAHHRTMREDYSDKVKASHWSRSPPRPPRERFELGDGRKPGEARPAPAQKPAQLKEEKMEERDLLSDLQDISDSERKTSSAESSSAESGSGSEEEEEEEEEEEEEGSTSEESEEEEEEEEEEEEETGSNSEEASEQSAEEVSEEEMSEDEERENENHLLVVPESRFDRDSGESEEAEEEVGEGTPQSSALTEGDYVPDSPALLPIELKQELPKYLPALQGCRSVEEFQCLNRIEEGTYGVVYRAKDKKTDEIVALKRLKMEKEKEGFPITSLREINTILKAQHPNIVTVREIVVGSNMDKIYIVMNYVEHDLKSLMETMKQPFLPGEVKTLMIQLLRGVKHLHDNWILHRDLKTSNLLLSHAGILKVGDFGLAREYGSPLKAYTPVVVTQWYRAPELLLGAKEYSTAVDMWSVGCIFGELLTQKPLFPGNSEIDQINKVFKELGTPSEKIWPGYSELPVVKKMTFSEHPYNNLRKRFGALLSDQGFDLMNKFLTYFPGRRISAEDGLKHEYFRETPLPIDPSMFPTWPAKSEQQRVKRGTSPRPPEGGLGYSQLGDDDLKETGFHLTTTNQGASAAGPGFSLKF

[19] = target: CDK10/Cyclin L2 (Homo sapiens, UniProt Q15131); assay: NanoBRET live-cell target engagement, CDK10-NanoLuc/Cyclin L2 in HEK-293
Sequence of CDK10/Cyclin L2 (Q15131 whole entry): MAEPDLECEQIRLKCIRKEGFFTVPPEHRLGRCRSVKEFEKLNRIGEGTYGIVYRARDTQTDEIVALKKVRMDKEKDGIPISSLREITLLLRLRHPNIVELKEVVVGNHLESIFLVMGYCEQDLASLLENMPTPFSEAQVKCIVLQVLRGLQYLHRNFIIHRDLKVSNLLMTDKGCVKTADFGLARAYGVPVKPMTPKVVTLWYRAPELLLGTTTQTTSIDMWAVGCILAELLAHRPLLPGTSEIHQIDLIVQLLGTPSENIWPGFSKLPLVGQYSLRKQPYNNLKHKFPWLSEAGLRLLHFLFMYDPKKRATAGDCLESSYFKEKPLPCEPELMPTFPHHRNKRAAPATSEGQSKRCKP

[20] = target: CDK3/Cyclin E1 (Homo sapiens, UniProt Q00526); assay: NanoBRET live-cell target engagement, CDK3-NanoLuc/Cyclin E1 in HEK-293; format: binding
[21] = target: CDK2/Cyclin E1 (Homo sapiens, UniProt P24941); assay: NanoBRET live-cell target engagement, CDK2-NanoLuc/Cyclin E1 in HEK-293; format: binding

Compound: O=C1NCCc2[nH]c(-c3ccncc3)cc21 [PHA-767491]
- CDK12/K Inhibition at 10µM (%) ([1]; average of experiments): 18.3%
- CDK12/K Inhibition at 10µM (%) ([1]; independent experiment 1): 19.8%
- CDK12/K Inhibition at 10µM (%) ([1]; independent experiment 2): 16.8%
- CDK20/H Inhibition at 10µM (%) ([2]; independent experiment 1): 1.2%
- CDK20/H Inhibition at 10µM (%) ([2]; independent experiment 2): 0.755%
- CDK6/D1 Inhibition at 10µM (%) ([3]; average of experiments): 19.5%
- CDK6/D1 Inhibition at 10µM (%) ([3]; independent experiment 1): 12.0%
- CDK6/D1 Inhibition at 10µM (%) ([3]; independent experiment 2): 27.0%
- CDK19/C Inhibition at 10µM (%) ([4]; average of experiments): 90.8%
- CDK19/C Inhibition at 10µM (%) ([4]; independent experiment 1): 91.1%
- CDK19/C Inhibition at 10µM (%) ([4]; independent experiment 2): 90.5%
- CDK9/K Inhibition at 10µM (%) ([5]; average of experiments): 95.5%
- CDK9/K Inhibition at 10µM (%) ([5]; independent experiment 1): 96.2%
- CDK9/K Inhibition at 10µM (%) ([5]; independent experiment 2): 94.7%
- CDK4/D1 Inhibition at 10µM (%) ([6]; average of experiments): 21.3%
- CDK4/D1 Inhibition at 10µM (%) ([6]; independent experiment 1): 22.1%
- CDK4/D1 Inhibition at 10µM (%) ([6]; independent experiment 2): 20.6%
- CDK7 Inhibition at 10µM (%) ([7]; average of experiments): 26.3%
- CDK7 Inhibition at 10µM (%) ([7]; independent experiment 1): 26.2%
- CDK7 Inhibition at 10µM (%) ([7]; independent experiment 2): 26.4%
- CDK14/Y Inhibition at 10µM (%) ([8]; average of experiments): 13.9%
- CDK14/Y Inhibition at 10µM (%) ([8]; independent experiment 1): 16.7%
- CDK14/Y Inhibition at 10µM (%) ([8]; independent experiment 2): 11.1%
- CDK13/K Inhibition at 10µM (%) ([9]; average of experiments): 11.6%
- CDK13/K Inhibition at 10µM (%) ([9]; independent experiment 1): 14.1%
- CDK13/K Inhibition at 10µM (%) ([9]; independent experiment 2): 9.2%
- CDK16/Y Inhibition at 10µM (%) ([10]; independent experiment 1): 25.1%
- CDK16/Y Inhibition at 10µM (%) ([10]; independent experiment 2): 16.6%
- CDK15/Y Inhibition at 10µM (%) ([11]; average of experiments): -2.1%
- CDK15/Y Inhibition at 10µM (%) ([11]; independent experiment 1): 6.2%
- CDK15/Y Inhibition at 10µM (%) ([11]; independent experiment 2): -10.5%
- CDK18/Y Inhibition at 10µM (%) ([12]; average of experiments): 28.3%
- CDK18/Y Inhibition at 10µM (%) ([12]; independent experiment 1): 21.8%
- CDK18/Y Inhibition at 10µM (%) ([12]; independent experiment 2): 34.7%
- CDK5/CDK5R1 Inhibition at 10µM (%) ([13]; average of experiments): 37.1%
- CDK5/CDK5R1 Inhibition at 10µM (%) ([13]; independent experiment 1): 38.6%
- CDK5/CDK5R1 Inhibition at 10µM (%) ([13]; independent experiment 2): 35.7%
- CDK11b/L2 Inhibition at 10µM (%) ([14]; average of experiments): 42.2%
- CDK11b/L2 Inhibition at 10µM (%) ([14]; independent experiment 1): 43.3%
- CDK11b/L2 Inhibition at 10µM (%) ([14]; independent experiment 2): 41.0%
- CDK1/E1 Inhibition at 10µM (%) ([15]; average of experiments): 20.9%
- CDK1/E1 Inhibition at 10µM (%) ([15]; independent experiment 1): 21.6%
- CDK1/E1 Inhibition at 10µM (%) ([15]; independent experiment 2): 20.1%
- CDK8/C Inhibition at 10µM (%) ([16]; average of experiments): 97.7%
- CDK8/C Inhibition at 10µM (%) ([16]; independent experiment 1): 98.5%
- CDK8/C Inhibition at 10µM (%) ([16]; independent experiment 2): 96.9%
- CDK17/Y Inhibition at 10µM (%) ([17]; average of experiments): 24.8%
- CDK17/Y Inhibition at 10µM (%) ([17]; independent experiment 1): 31.6%
- CDK17/Y Inhibition at 10µM (%) ([17]; independent experiment 2): 18.1%
- CDK11a/L2 Inhibition at 10µM (%) ([18]; average of experiments): 24.0%
- CDK11a/L2 Inhibition at 10µM (%) ([18]; independent experiment 1): 26.5%
- CDK11a/L2 Inhibition at 10µM (%) ([18]; independent experiment 2): 21.5%
- CDK10/L2 Inhibition at 10µM (%) ([19]; average of experiments): 11.0%
- CDK10/L2 Inhibition at 10µM (%) ([19]; independent experiment 1): 18.5%
- CDK10/L2 Inhibition at 10µM (%) ([19]; independent experiment 2): 3.5%
- CDK3/E1 Inhibition at 10µM (%) ([20]; average of experiments): 31.6%
- CDK3/E1 Inhibition at 10µM (%) ([20]; independent experiment 1): 30.4%
- CDK3/E1 Inhibition at 10µM (%) ([20]; independent experiment 2): 32.8%
- CDK2/E1 Inhibition at 10µM (%) ([21]; average of experiments): 26.7%
- CDK2/E1 Inhibition at 10µM (%) ([21]; independent experiment 1): 26.7%
- CDK2/E1 Inhibition at 10µM (%) ([21]; independent experiment 2): 26.6%
